Data on 9 compounds can be found in ChEMBL document CHEMBL5465560, “Selectivity Literature for EUbOPEN Chemogenomic Library” (2024).

The target of assay [1] is Myosin light chain kinase 2, skeletal/cardiac muscle (Homo sapiens) (UniProt Q9H1R3). Put plainly: Selectivity interaction (ProQinase) EUB0000171b MYLK2.
Assay [2] concerns the target T1, Protein kinase C zeta type (Homo sapiens) (UniProt Q05513).
T1 sequence (whole entry): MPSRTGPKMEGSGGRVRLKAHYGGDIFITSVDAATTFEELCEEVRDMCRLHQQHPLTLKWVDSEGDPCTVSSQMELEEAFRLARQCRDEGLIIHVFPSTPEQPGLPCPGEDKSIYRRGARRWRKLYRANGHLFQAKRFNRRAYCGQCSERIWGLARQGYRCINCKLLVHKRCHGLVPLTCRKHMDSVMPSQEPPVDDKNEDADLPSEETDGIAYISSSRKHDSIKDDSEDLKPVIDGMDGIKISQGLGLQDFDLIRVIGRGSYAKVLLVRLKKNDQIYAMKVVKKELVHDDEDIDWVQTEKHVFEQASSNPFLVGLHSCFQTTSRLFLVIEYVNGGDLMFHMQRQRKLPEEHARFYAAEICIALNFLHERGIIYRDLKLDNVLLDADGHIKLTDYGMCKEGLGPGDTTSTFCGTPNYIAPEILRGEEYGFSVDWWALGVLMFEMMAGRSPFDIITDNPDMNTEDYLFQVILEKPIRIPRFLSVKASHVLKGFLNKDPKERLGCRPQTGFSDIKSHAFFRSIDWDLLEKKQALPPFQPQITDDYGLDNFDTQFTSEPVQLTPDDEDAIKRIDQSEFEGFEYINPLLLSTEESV
In words: Selectivity interaction (ProQinase) EUB0000171b PRKCZ.

The target in assay [3] is Glycogen synthase kinase-3 alpha (Homo sapiens, UniProt P49840). To be noted: at 10 µM.
For assay [4], the target named is Bromodomain-containing protein 7 (Homo sapiens) (UniProt Q9NPI1). Put plainly: Selectivity interaction (Bromodomain panel (DSF asssay)) EUB0000270b BRD7.
The nature of assay [5]: Selectivity interaction (KinomeScan (DiscoverX)) EUB0000666a CDPK1. Particulars: at 10 µM.
Assay [6] has as its target T2, Mitogen-activated protein kinase kinase kinase 5 (Homo sapiens) (UniProt Q99683).
T2 sequence (whole entry): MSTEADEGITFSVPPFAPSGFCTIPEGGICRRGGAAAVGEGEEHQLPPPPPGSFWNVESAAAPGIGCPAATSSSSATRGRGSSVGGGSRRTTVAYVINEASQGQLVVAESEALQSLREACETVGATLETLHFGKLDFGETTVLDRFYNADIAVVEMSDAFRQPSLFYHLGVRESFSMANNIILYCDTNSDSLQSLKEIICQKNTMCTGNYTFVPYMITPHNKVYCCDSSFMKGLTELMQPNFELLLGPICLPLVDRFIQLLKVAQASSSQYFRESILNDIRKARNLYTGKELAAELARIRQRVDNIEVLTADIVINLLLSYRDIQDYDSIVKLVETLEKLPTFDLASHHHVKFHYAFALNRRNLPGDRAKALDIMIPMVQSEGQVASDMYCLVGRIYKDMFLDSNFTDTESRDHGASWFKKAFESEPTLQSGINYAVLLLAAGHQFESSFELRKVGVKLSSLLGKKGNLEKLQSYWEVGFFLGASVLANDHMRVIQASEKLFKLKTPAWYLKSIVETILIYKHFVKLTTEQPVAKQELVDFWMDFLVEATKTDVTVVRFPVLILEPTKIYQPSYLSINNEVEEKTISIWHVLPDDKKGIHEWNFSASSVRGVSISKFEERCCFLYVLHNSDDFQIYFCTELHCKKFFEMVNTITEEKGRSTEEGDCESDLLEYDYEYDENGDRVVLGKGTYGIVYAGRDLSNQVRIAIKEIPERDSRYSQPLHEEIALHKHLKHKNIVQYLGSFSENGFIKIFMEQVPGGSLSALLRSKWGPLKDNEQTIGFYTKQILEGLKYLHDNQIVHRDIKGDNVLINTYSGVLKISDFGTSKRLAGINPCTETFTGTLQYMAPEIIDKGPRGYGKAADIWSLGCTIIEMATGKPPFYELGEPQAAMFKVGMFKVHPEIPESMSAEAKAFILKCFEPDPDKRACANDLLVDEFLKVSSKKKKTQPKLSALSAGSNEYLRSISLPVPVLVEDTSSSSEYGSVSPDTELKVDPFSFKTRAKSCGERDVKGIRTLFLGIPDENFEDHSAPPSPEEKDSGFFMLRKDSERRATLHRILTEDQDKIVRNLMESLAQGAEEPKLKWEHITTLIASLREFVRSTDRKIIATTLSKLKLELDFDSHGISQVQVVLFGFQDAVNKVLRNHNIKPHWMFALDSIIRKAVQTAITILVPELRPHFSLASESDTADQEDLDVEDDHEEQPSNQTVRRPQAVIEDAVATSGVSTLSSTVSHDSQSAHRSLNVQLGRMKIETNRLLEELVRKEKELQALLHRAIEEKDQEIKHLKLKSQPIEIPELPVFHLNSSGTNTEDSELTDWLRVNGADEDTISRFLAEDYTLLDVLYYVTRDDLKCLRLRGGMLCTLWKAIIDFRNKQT
In words: Selectivity interaction (ActivX KiNativ screen (kinase selectivity in THP-1 cell lysates)) EUB0000639a MAP3K5. Particulars: lysate, at 1 µM. It is filed as subcellular.

For assay [7], the target named is Cyclin-dependent kinase 7 (Homo sapiens, UniProt P50613). In words: Selectivity interaction (ActivX KiNativ screen (kinase selectivity in THP-1 cell lysates)) EUB0000639a CDK7. To be noted: lysate, at 1 µM. It is filed as subcellular.
Assay [8] has as its target Calcium/calmodulin-dependent protein kinase type II subunit delta (Homo sapiens) (UniProt Q13557). In words: Selectivity interaction (KinomeScan (DiscoverX)) EUB0000229b CAMK2D. Particulars: at 10 µM.
The target in assay [9] is Serine/threonine-protein kinase pim-3 (Homo sapiens) (UniProt Q86V86). Put plainly: Selectivity interaction (Kinase panel (DSF assay)) EUB0001489b PIM3. (In general: In DSF a fluorescence change marks the thermal transition of the protein.)
Assay [10] concerns the target Serine/threonine-protein kinase SMG1 (Homo sapiens) (UniProt Q96Q15). Put plainly: Selectivity interaction (Kinase panel (KiNativ target engagement assay in Jurkat cells)) EUB0001635a SMG1. Particulars: Selectivity number of off-targets 0.0, Selectivity number of targets 233.0, Source Knowledge https://www.sciencedirect.com/science/article/pii/S2451945619300674?via%3Dihub, at 1 µM. The format is cell-based.

In assay [11] the target is Rho-associated protein kinase 2 (Homo sapiens, UniProt O75116). In words: Selectivity interaction (KinomeScan (DiscoverX)) EUB0000618a ROCK2. Particulars: at 10 µM.

Myosin light chain kinase 2, skeletal/cardiac muscle (Homo sapiens), sequence (Q9H1R3 whole entry): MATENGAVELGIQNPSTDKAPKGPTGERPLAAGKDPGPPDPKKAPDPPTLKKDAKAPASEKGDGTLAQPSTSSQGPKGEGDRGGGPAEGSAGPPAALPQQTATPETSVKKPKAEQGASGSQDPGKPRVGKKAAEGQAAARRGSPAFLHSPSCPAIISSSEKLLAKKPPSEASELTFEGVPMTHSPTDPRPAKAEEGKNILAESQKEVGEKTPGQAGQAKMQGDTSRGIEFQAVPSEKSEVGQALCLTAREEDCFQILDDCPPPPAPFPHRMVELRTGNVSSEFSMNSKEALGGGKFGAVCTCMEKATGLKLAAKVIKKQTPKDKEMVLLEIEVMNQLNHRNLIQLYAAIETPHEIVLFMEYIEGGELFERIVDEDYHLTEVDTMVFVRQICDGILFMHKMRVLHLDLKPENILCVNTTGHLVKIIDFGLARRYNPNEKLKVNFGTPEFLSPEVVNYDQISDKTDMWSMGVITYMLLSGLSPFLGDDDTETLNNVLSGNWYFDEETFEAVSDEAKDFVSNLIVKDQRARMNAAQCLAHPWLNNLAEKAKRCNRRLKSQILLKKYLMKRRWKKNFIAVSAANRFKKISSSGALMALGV
Cyclin-dependent kinase 7, sequence (P50613 whole entry): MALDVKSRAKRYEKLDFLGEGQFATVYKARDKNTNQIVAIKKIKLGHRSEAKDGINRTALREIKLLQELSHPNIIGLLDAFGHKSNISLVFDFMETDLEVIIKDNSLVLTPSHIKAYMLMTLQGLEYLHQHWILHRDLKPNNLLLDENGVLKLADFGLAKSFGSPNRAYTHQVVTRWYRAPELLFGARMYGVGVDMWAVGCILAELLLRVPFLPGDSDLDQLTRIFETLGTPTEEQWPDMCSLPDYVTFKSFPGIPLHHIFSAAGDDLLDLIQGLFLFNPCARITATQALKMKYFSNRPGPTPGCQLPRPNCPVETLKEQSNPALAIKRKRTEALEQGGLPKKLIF
Serine/threonine-protein kinase SMG1 (Homo sapiens), sequence (Q96Q15 whole entry): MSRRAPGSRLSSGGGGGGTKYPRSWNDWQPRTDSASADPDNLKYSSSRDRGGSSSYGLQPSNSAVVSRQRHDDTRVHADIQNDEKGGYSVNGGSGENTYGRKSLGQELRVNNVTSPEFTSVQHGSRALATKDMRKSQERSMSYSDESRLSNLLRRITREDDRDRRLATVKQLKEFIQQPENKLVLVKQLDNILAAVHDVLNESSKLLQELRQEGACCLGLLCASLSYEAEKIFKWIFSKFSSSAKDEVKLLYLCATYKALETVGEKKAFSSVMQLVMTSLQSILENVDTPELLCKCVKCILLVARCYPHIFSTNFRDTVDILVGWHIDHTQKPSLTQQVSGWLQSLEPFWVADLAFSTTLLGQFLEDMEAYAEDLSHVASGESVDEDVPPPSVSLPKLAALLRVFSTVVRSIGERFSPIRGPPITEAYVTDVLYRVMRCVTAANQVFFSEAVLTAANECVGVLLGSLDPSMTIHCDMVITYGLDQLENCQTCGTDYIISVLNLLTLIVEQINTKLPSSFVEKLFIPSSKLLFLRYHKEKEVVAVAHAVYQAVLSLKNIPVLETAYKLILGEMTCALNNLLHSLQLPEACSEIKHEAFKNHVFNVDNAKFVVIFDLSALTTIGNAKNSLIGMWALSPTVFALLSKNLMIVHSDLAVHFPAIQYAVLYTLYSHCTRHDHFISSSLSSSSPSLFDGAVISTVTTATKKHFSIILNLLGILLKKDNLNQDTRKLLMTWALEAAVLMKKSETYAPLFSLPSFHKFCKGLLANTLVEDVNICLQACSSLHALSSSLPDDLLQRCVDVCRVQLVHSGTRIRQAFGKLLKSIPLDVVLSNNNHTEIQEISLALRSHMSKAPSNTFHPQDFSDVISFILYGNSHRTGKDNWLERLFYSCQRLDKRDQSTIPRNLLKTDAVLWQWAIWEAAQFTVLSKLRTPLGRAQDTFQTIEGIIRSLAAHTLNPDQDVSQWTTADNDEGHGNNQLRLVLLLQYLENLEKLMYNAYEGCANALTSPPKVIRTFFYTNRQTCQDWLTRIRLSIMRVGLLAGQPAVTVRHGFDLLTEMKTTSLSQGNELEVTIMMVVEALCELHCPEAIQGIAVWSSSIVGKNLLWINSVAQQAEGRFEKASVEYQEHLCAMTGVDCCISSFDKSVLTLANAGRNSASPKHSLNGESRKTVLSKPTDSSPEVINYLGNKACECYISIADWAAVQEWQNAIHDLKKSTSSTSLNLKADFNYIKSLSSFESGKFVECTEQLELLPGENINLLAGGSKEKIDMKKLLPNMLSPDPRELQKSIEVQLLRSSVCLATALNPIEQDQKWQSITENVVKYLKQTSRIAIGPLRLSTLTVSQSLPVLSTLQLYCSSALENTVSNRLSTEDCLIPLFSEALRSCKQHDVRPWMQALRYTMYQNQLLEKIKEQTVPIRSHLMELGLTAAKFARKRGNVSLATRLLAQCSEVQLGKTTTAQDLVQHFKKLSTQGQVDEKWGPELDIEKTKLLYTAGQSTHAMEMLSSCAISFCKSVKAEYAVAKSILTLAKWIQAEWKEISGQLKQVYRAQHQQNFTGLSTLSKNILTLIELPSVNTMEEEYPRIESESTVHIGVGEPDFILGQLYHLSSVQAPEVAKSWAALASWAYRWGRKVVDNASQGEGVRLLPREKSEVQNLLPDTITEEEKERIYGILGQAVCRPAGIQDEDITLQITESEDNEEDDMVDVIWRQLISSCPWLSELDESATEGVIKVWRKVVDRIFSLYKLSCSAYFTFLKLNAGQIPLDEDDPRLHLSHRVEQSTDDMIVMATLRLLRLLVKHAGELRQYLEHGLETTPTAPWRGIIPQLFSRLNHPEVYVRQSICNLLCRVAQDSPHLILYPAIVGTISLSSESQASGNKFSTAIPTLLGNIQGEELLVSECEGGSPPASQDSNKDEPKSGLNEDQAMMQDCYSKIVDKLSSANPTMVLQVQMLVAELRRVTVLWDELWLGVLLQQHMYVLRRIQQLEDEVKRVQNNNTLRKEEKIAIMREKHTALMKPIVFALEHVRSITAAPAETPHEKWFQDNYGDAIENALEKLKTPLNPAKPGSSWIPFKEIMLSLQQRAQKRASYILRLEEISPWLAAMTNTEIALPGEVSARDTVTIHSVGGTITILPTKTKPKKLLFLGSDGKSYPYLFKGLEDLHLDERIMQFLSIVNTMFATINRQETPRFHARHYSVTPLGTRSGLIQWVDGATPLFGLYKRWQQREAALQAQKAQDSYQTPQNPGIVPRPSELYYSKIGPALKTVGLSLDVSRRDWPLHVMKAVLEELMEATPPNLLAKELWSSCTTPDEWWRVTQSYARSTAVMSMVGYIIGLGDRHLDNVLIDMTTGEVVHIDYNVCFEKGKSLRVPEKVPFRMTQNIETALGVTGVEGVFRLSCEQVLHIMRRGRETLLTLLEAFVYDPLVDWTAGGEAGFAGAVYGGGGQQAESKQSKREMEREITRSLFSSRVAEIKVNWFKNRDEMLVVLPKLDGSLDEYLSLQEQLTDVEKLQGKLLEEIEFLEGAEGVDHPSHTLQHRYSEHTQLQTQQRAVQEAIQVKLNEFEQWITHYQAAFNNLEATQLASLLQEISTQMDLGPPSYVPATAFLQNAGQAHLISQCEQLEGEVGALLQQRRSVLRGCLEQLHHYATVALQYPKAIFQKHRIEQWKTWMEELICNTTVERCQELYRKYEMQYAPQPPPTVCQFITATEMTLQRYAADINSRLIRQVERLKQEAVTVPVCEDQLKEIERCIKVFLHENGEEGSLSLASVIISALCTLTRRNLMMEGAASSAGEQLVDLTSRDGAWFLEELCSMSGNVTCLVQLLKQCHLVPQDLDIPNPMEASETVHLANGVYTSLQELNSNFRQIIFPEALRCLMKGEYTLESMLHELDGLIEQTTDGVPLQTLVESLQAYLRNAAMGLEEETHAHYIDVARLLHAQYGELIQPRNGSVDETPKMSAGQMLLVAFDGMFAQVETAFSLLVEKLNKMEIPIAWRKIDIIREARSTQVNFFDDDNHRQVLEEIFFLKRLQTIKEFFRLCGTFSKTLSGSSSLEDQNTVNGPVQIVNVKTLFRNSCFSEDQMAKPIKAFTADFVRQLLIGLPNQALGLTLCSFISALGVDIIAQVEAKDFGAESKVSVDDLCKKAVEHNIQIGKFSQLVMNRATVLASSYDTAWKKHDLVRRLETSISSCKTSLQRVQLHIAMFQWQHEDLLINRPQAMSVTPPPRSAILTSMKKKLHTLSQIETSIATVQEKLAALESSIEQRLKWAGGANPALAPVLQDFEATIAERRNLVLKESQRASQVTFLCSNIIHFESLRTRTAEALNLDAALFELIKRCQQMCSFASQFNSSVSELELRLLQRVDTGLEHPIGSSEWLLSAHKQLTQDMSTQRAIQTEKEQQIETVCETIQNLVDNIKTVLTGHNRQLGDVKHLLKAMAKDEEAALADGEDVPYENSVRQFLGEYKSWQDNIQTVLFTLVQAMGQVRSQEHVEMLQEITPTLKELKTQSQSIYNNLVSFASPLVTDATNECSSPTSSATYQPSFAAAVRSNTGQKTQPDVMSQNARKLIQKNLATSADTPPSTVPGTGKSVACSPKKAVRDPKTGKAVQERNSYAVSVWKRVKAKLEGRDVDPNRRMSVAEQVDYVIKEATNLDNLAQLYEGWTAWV

Consider `C=CC(=O)Nc1cccc(C(=O)Nc2ccc(Nc3cc(-c4[nH]c(SC)nc4C)ccn3)cc2)c1`, for which the % of control in assay [1] (at 1 µM) was determined as 83%; in [1] (at 5 µM), 59%; in [2] (at 1 µM), 87%; in assay [2] (at 5 µM) it was 86%. On to `CCN(CC)CCCCNc1ncc2cc(-c3cc(OC)cc(OC)c3)c(NC(=O)NC(C)(C)C)nc2n1`, for which, in assay [3], the % of control stood at 100%. As for `Cc1cc(CN)cc(C)c1-c1ncn(C)c1-c1cncn1C`, the dTM in assay [4] was -1.08 K.

As to `O=C(NOC[C@H](O)CO)c1ccc(F)c(F)c1Nc1ccc(I)cc1F`, in assay [5], the % of control came to 78%. With `CC[C@@H]1[C@H](F)C(=O)N[C@@H]1COc1nccc2cc(C(N)=O)c(OC)cc12` [ZIMLOVISERTIB], the % of inhibition in assay [6] was -29.6%; in assay [7], 10.8%. As for `COc1cc(N(C)c2ccnc3ccc(C(F)(F)F)cc23)cc(OC)c1OC`, the % binding in assay [8] came to 95%. `CN1CCN(C(=O)c2ccc3cc2OCCOCCNc2ccn4ncc-3c4n2)CC1`: in assay [9], the dTM was 2.1 K.

As for `C=CC(=O)Nc1ccc(C(=O)Nc2[nH]nc3c2CN(C(=O)N[C@H](CN(C)C)c2ccccc2)C3(C)C)cc1`, in assay [10], the % of engagement is -4.6%.

For `O[C@H]1CC[C@H](Nc2ncc3nc(Nc4c(F)cc(F)cc4F)n([C@H]4CCOC4)c3n2)CC1`, in assay [11], the % of control is 100%.
